Experimental data: US7208500B2, “Thienopyridine-phenylacetamides and their derivatives useful as new anti-angiogenic agents” (Agouron Pharmaceuticals, Inc., priority 2003, dated 2007)

What was measured:
[1] = biological target: T1, unphosphorylated VEGF-R2D50 (FLVK), cytosolic domain of human VEGF-R2 (Homo sapiens, UniProt P35968, DEL940-989/E990V); experiment: VEGF-R2 coupled spectrophotometric assay (FLVK); type: biochemical
T1 construct: VEGF-R2D50 contains residues 806–939 and 990–1171; made in house; host or cells: baculovirus/insect cell system
T1 sequence (P35968 with tags, fused parts or gaps DEL940-989/E990V limits assumed): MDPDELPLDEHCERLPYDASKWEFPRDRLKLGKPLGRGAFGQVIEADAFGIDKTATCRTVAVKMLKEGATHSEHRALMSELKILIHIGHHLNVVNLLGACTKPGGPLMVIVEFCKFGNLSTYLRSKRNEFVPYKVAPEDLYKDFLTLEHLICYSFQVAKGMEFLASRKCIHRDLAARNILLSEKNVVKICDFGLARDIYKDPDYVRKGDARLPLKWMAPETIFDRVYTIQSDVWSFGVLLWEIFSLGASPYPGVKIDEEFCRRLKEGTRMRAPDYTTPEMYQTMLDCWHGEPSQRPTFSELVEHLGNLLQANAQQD
Description: This construct determines the ability of a test compound to inhibit tyrosine kinase activity. A construct (VEGF-R2D50) of the cytosolic domain of human vascular endothelial growth factor receptor 2 (VEGF-R2) lacking the 50 central residues of the 68 residues of the kinase insert domain was expressed in a baculovirus/insect cell system. Of the 1356 residues of full-length VEGF-R2, VEGF-R2D50 contains residues 806–939 and 990–1171, and also one point mutation (E990V) within the kinase insert domain relative to wild-type VEGF-R2. Autophosphorylation of the purified construct was performed by incubation of the enzyme at a concentration of […] in the presence of 3 mM ATP and 40 mM MgCl2 in 100 mM HEPES, pH 7.5, containing 5% glycerol and 5 mM DTT, at 4° C. for 2 h. […] See Parast et al., Biochemistry, 37, 16788–16801 (1998).
The production of ADP from ATP that accompanies phosphoryl transfer was coupled to oxidation of NADH using phosphoenolpyruvate (PEP) and a system having pyruvate kinase (PK) and lactic dehydrogenase (LDH). The oxidation of NADH was monitored by following the decrease of absorbance at 340 nm (e340=6.22 cm^−1 mM^−1) using a Beckman DU 650 spectrophotometer. Assay conditions for phosphorylated VEGF-R2D50 (indicated as FLVK-P in the tables below) were the following: 1 mM PEP; […]; 50 units of LDH/mL; 20 units of PK/mL; 5 mM DTT; 5.1 mM poly(E4Y1); 1 mM ATP; and 25 mM MgCl2 in 200 mM HEPES, pH 7.5. Assay conditions for unphosphorylated VEGF-R2D50 (indicated as FLVK in the tables) were the following: 1 mM PEP; […]; 50 units of LDH/mL; 20 units of PK/mL; 5 mM DTT; 20 mM poly(E4Y1); 3 mM ATP; and 60 mM MgCl2 and 2 mM MnCl2 in 200 mM HEPES, pH 7.5. Assays were initiated with 5 to 40 nM of enzyme. Ki values were determined by measuring enzyme activity in the presence of varying concentrations of test compounds. The percent inhibition at 50 nm (% inhibition@50 nm) was determined by linear least-squares regression analysis of absorpbance as a function of time. The binding inhibitions were fitted to equation as described by Morrison. The data were analyzed using Enzyme Kinetic and Kaleidagraph software.

[2] = biological target: T2, FGF-R1 intracellular kinase domain (Homo sapiens, UniProt P11362, C488A/C584S/L457V); experiment: FGF-R spectrophotometric assay; type: biochemical; details: 50 nM test compound; read-out: FGF-P (% inh @ 50 nM)
T2 construct: starting from the endogenous methionine residue 456 to glutamate 766; made in house; host or cells: baculovirus vector expression system
T2 sequence (P11362 456-766 L457V/C488A/C584S): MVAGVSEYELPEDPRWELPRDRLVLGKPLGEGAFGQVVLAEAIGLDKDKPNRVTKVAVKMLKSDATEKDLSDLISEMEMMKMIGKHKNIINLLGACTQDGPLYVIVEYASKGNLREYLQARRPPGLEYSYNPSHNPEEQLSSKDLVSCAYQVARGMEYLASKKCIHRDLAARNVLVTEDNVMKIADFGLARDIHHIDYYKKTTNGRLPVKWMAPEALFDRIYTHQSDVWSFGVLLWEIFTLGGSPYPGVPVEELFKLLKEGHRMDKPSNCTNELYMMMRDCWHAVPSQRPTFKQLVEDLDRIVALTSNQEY
Protocol: The intracellular kinase domain of human FGF-R1 was expressed using the baculovirus vector expression system starting from the endogenous methionine residue 456 to glutamate 766, according to the residue numbering system of Mohammadi et al., Mol. Cell. Biol., 16, 977–989 (1996). In addition, the construct also has the following 3 amino acid substitutions: L457V, C488A, and C584S.
The spectrophotometric assay was carried out as described above for VEGF-R2, except for the following changes in concentration: FGF-R=50 nM, ATP=2 mM, and poly(E4Y1)=15 mM.

[3] = system: human umbilical vein endothelial cells (HUVEC); experiment: HUVEC + VEGF proliferation assay; type: cell-based; details: VEGF-stimulated proliferation, final VEGF 6 ng/mL, 72 hours, MTT
Protocol: This assay determines the ability of a test compound to inhibit the growth factor-stimulated proliferation of human umbilical vein endothelial cells (“HUVEC”). HUVEC cells (passage 3–4, Clonetics, Corp.) were thawed into EGM2 culture medium (Clonetics Corp) in T75 flasks. Fresh EGM2 medium was added to the flasks 24 hours later. Four or five days later, cells were exposed to another culture medium (F12K medium supplemented with 10% fetal bovine serum (FBS), […] endothelial cell growth supplement (ECGS), and 0.1 mg/mL heparin). Exponentially-growing HUVEC cells were used in experiments thereafter. Ten to twelve thousand HUVEC cells were plated in 96-well dishes in […] of rich, culture medium (described above). The cells were allowed to attach for 24 hours in this medium. The medium was then removed by aspiration and […] of starvation media (F12K+1% FBS) was added to each well. After 24 hours, […] of test agent dissolved in 1% DMSO in starvation medium or this vehicle alone was added into each treatment well; the final DMSO concentration was 0.1%. One hour later, […] of VEGF (30 ng/mL) in starvation media was added to all wells except those containing untreated controls; the final VEGF concentration was 6 ng/mL. Cellular proliferation was quantified 72 hours later by MTT dye reduction, at which time cells were exposed for 4 hours MTT (Promega Corp.). Dye reduction was stopped by addition of a stop solution (Promega Corp.) and absorbance at 595 nm was determined on a 96-well spectrophotometer plate reader.

Structure (SMILES)	Ki [1]	inhibition at 0.05 µM [2]	IC50 [3]
Cc1ccnc(NC(=O)Cc2ccc(Oc3ccnc4cc(-c5nccn5C)sc34)cc2)c1 [Example 11, 2-{4-[2-(1-Methyl-1H-imidazol-2-yl)-thieno[3,2-b]pyridin-7-yloxy]-phenyl}-N-(4-methyl-pyridin-2-yl)-acetamide]	< 0.001 µM	0 to 5%	> 0.01 µM
Cc1cc(NC(=O)Cc2ccc(Oc3ccnc4cc(C(=O)N5CCC5)sc34)cc2Cl)n[nH]1 [Example 55, 2-{4-[2-(Azetidine-1-carbonyl)-thieno[3,2-b]pyridin-7-yloxy]-2-chloro-phenyl}-N-(5-methyl-1H-pyrazol-3-yl)-acetamide]	< 0.001 µM	0 to 5%	< 0.001 µM
Cn1ccnc1-c1cc2nccc(Oc3ccc(CC(=O)Nc4ccc(C(F)(F)F)cn4)cc3)c2s1 [Example 13, 2-{4-[2-(1-Methyl-1H-imidazol-2-yl)-thieno[3,2-b]pyridin-7-yloxy]-phenyl}-N-(5-trifluoromethyl-pyridin-2-yl)-acetamide]	< 0.001 µM	5 to 10%	> 0.01 µM
O=C(Cc1ccc(Oc2ccnc3cc(C(=O)N4CCC4)sc23)cc1)Nc1ccc2[nH]ncc2c1 [Example 36, 2-{4-[2-(Azetidine-1-carbonyl)-thieno[3,2-b]pyridin-7-yloxy]-phenyl}-N-(1H-indazol-5-yl)-acetamide]	–	0 to 5%	> 0.01 µM
O=C(Cc1ccc(Oc2ccnc3cc(C(=O)N4CC[C@@H](O)C4)sc23)cc1)Nc1ccccn1 [Example 19, 2-{4-[2-((R)-3-Hydroxy-pyrrolidine-1-carbonyl)-thieno[3,2-b]pyridin-7-yloxy]-phenyl}-N-pyridin-2-yl-acetamide]	0.001 to 0.01 µM	0 to 5%	> 0.01 µM
Cc1ccc(NC(=O)Cc2ccc(Oc3ccnc4cc(C(=O)N5CCC5)sc34)cc2)nc1 [Example 24, 2-{4-[2-(Azetidine-1-carbonyl)-thieno[3,2-b]pyridin-7-yloxy]-phenyl}-N-(5-methyl-pyridin-2-yl)-acetamide]	< 0.001 µM	0 to 5%	0.001 to 0.01 µM
O=C(Cc1ccc(Oc2ccnc3cc(C(=O)N4CCC4)sc23)cc1)Nc1nccc2ccccc12 [Example 32, 2-{4-[2-(Azetidine-1-carbonyl)-thieno[3,2-b]pyridin-7-yloxy]-phenyl}-N-isoquinolin-1-yl-acetamide]	0.001 to 0.01 µM	0 to 5%	> 0.01 µM
Cc1cc(NC(=O)Cc2ccc(Oc3ccnc4cc(C(=O)N5CCC5)sc34)cc2Cl)no1 [Example 52, 2-{4-[2-(Azetidine-1-carbonyl)-thieno[3,2-b]pyridin-7-yloxy]-2-chloro-phenyl}-N-(5-methyl-isoxazol-3-yl)-acetamide]	0.001 to 0.01 µM	> 10%	> 0.01 µM
COc1ccc2c(Oc3ccc(CC(=O)Nc4ccc(Cl)cn4)cc3)ccnc2c1 [Example 87, N-(5-Chloro-pyridin-2-yl)-2-[4-(7-methoxy-quinolin-4-yloxy)-phenyl]-acetamide]	0.001 to 0.01 µM	0 to 5%	> 0.01 µM
Cc1cc(C)nc(NC(=O)Cc2ccc(Oc3ccnc4cc(-c5nccn5C)sc34)cc2)c1 [Example 9, N-(4,6-Dimethyl-pyridin-2-yl)-2-{4-[2-(1-methyl-1H-imidazol-2-yl)-thieno[3,2-b]pyridin-7-yloxy]-phenyl}-acetamide]	< 0.001 µM	5 to 10%	< 0.001 µM
Cc1cc(C)nc(NC(=O)Cc2ccc(Oc3ccnc4cc(C(=O)N5CCC5)sc34)cc2)c1 [Example 22, 2-{4-[2-(Azetidine-1-carbonyl)-thieno[3,2-b]pyridin-7-yloxy]-phenyl}-N-(4,6-dimethyl-pyridin-2-yl)-acetamide]	–	0 to 5%	< 0.001 µM
Cc1cc(C)nc(NC(=O)Cc2ccc(Oc3ccnc4cc(C(=O)N(C)CCN(C)C)sc34)cc2)c1 [Example 6, 7-{4-[(4,6-Dimethyl-pyridin-2-ylcarbamoyl)-methyl]-phenoxy}-thieno[3,2-b]pyridine-2-carboxylic acid (2-dimethylamino-ethyl)-methyl-amide]	< 0.001 µM	5 to 10%	> 0.01 µM
O=C(Cc1ccc(Oc2ccnc3cc(C(=O)N4CCC4)sc23)cc1)Nc1ccc(N2CCOCC2)nc1 [Example 38, 2{-4-[2-(Azetidine-1-carbonyl)-thieno[3,2-b]pyridin-7-yloxy]-phenyl}-N-(6-morpholin-4-yl-pyridin-3-yl)-acetamide]	–	0 to 5%	> 0.01 µM
Cc1cc(NC(=O)Cc2ccc(Oc3ccnc4cc(C(=O)N5CCC5)sc34)cc2Cl)nn1C [Example 56, 2-{4-[2-(Azetidine-1-carbonyl)-thieno[3,2-b]pyridin-7-yloxy]-2-chloro-phenyl}-N-(1,5-dimethyl-1H-pyrazol-3-yl)-acetamide]	–	0 to 5%	> 0.01 µM
Cc1cc(C)nc(NC(=O)Cc2ccc(Oc3ccnc4cc(C(=O)N5C[C@@H](O)[C@@H](O)C5)sc34)cc2)c1 [Example 3]	–	0 to 5%	< 0.001 µM
CNC(=O)Cc1ccc(Oc2ccnc3cc(C(=O)N4CC[C@@H](O)C4)sc23)cc1Cl [Example 64, 2-{2-Chloro-4-[2-((R)-3-hydroxy-pyrrolidine-1-carbonyl)-thieno[3,2-b]pyridin-7-yloxy]-phenyl}-N-methyl-acetamide]	> 0.01 µM	0 to 5%	–
COC(C(=O)Nc1ccccn1)c1ccc(Oc2ccnc3cc(C(=O)N4CCC4)sc23)cc1 (centres unmarked) [Example 83, 2-{4-[2-(Azetidine-1-carbonyl)-thieno[3,2-b]pyridin-7-yloxy]-phenyl}-2-methoxy-N-pyridin-2-yl-acetamide]	> 0.01 µM	5 to 10%	–
CNC(=O)Cc1ccc(Oc2ccnc3cc(-c4nccn4C)sc23)cc1Cl [Example 65, 2-{2-Chloro-4-[2-(1-methyl-1H-imidazol-2-yl)-thieno[3,2-b]pyridin-7-yloxy]-phenyl}-N-methyl-acetamide]	> 0.01 µM	0 to 5%	–
Cc1cc(NC(=O)C(O)c2ccc(Oc3ccnc4cc(C(=O)N5CCC5)sc34)cc2)on1 (centres unmarked) [Example 80, 2-{4-[2-(Azetidine-1-carbonyl)-thieno[3,2-b]pyridin-7-yloxy]-phenyl}-2-hydroxy-N-(3-methyl-isoxazol-5-yl)-acetamide]	> 0.01 µM	5 to 10%	–
Cn1ccnc1-c1cc2nccc(Oc3ccc(CC(=O)NCc4cccc(F)c4)c(Cl)c3)c2s1 [Example 59, 2-{2-Chloro-4-[2-(1-methyl-1H-imidazol-2-yl)-thieno[3,2-b]pyridin-7-yloxy]-phenyl}-N-(3-fluoro-benzyl)-acetamide]	> 0.01 µM	0 to 5%	–
